Experiment [1] has as its target T1, human Cav3.2 (Homo sapiens, UniProt O95180).
T1 construct: expressed in transfected cells; host or cells: HEK293 FlpIn T-Rex cells (Invitrogen)
Nature of the experiment: FLIPR calcium flux assay, Cav3.2. The class given is cell-based.
Procedure: Intracellular calcium flux was measured using a fluorometric imaging plate-reader (FLIPR) Calcium 5 Assay Kit and FlexStation 3 Microplate Reader (Molecular Devices, San Jose, United States). […]
Fluorescence readings were taken at 2 s intervals (λ excitation = 485 nm, λ emission = 525 nm). […] Baseline fluorescence averaged over the 20 s interval preceding CaCl2 addition was subtracted and normalized to the vehicle response. Changes in fluorescence were measured in relative fluorescence units (RFU). […]

The subject of experiment [2] is T-type channels. More on the design: method as in Kevin et al., 2022. The note with it: single 10 μM concentration, FLIPR calcium flux and whole-cell patch clamp, ref Kevin et al., 2022; cited from earlier work.
Experiment [3] has as its target T2, human Cav3.1 (Homo sapiens, UniProt O43497).
T2 construct: expressed in transfected cells; host or cells: HEK293 FlpIn T-Rex cells (Invitrogen)
Nature of the experiment: FLIPR calcium flux assay, Cav3.1. It counts as cell-based. As for the experimental part:
HEK293 FlpIn T-Rex cells (Invitrogen, CA, United States) stably expressing human Cav3.1, Cav3.2, or Cav3.3 were maintained in Dulbecco’s Modified Eagle Medium (DMEM) supplemented with 10% foetal bovine serum (FBS), 1% penicillin-streptomycin (P/S) at 37°C, and 5% CO2 as previously described ([Bladen et al., 2021]; [Udoh et al., 2022]). Hygromycin (80 μg/mL) and blasticidin (15 μg/mL) were used as selection antibiotics and cells were passaged at 80% confluency. For experiments, cells were resuspended in Leibovitz’s L-15 media (containing 1% FBS, 1% P/S, 15 mM glucose, 2 μg/mL tetracycline), plated in black, clear-bottomed poly-D-lysine-coated 96-well plates (90 μL) (Corning, NY, United States), and incubated overnight in ambient air at 37°C. All compounds tested in cellular assays were prepared as stock solutions in DMSO and final DMSO concentration was 0.1%.
Intracellular calcium flux was measured using a fluorometric imaging plate-reader (FLIPR) Calcium 5 Assay Kit and FlexStation 3 Microplate Reader (Molecular Devices, San Jose, United States). Calcium 5 dye (90 μL) prepared in low potassium HBSS (Thermo Fisher Scientific) containing (in mM) 145 NaCl, 22 HEPES, 0.338 Na2HPO4, 4.17 NaHCO3, 0.441 KH2PO4, 0.407 MgSO4, 0.493 MgCl2, 1.26 CaCl2, 5.56 glucose, and […] with pH 7.4 was applied to each well and incubated for 1 h at 37°C, ambient air prior to testing.
Fluorescence readings were taken at 2 s intervals (λ excitation = 485 nm, λ emission = 525 nm). Following 2 min baseline reading, 20 μL of SB2193, SB2193F, or NNC 55-0396 (10 nM—10 μM) was added to cells and read for 5 min, then CaCl2 (10 mM) was added and read for 3 min. Baseline fluorescence averaged over the 20 s interval preceding CaCl2 addition was subtracted and normalized to the vehicle response. Changes in fluorescence were measured in relative fluorescence units (RFU). All compounds were assayed in ≥ five independent experiments (n = 5–8) performed in duplicate. Order of compound addition and location on the plate were varied between replicates. Data was fit to a four-parameter non-linear dose-response curve using GraphPad Prism 8.2.0 software (La Jolla, United States) to determine IC50 values.

Experiment [4] deals with T2, human Cav3.1. Nature of the experiment: Whole-cell patch-clamp electrophysiology, Cav3.1. It counts as cell-based. As for the experimental part: All whole-cell voltage-clamp recordings from HEK293 FlpIn T-Rex cells stably transfected with human Cav3.1 were performed at room temperature. At least 24 h prior to experiments, cells were detached from flasks using trypsin/EDTA and plated into 10 cm sterile tissue culture dishes containing 10 mL of supplemented DMEM and 10–15 glass coverslips (12 mm diameter, ProScitech, QLD, Australia). Culture dishes were then kept overnight in same conditions as flasks to allow cells to adhere to coverslips. They were then transferred to a 30°C/5% CO2 incubator to inhibit cell proliferation until ready to be used for electrophysiology experiments. At this stage, channel expression was induced with tetracycline (2 μg/mL, Sigma-Aldrich) 8–24 h prior to recording cells.
External recording solutions contained (in mM): 114 CsCl, 5 BaCl2, 1 MgCl2, 10 HEPES, 10 glucose, adjusted to pH 7.4 with CsOH. The internal patch pipette solution contained (in mM): 126.5 CsMeSO4, 2 MgCl2, 11 EGTA, 10 HEPES adjusted to pH 7.3 with CsOH. […] Liquid junction potentials for the above solutions were calculated before experiments using pClamp 10 software and corrected during experiments. […] Currents were elicited from a holding potential of −100 mV and were measured by conventional whole-cell patch clamp techniques using an Axopatch 200B amplifier in combination with Clampex 9.2 software (Molecular Devices, Sunnyvale, CA). […]

T2 sequence (O43497 whole entry): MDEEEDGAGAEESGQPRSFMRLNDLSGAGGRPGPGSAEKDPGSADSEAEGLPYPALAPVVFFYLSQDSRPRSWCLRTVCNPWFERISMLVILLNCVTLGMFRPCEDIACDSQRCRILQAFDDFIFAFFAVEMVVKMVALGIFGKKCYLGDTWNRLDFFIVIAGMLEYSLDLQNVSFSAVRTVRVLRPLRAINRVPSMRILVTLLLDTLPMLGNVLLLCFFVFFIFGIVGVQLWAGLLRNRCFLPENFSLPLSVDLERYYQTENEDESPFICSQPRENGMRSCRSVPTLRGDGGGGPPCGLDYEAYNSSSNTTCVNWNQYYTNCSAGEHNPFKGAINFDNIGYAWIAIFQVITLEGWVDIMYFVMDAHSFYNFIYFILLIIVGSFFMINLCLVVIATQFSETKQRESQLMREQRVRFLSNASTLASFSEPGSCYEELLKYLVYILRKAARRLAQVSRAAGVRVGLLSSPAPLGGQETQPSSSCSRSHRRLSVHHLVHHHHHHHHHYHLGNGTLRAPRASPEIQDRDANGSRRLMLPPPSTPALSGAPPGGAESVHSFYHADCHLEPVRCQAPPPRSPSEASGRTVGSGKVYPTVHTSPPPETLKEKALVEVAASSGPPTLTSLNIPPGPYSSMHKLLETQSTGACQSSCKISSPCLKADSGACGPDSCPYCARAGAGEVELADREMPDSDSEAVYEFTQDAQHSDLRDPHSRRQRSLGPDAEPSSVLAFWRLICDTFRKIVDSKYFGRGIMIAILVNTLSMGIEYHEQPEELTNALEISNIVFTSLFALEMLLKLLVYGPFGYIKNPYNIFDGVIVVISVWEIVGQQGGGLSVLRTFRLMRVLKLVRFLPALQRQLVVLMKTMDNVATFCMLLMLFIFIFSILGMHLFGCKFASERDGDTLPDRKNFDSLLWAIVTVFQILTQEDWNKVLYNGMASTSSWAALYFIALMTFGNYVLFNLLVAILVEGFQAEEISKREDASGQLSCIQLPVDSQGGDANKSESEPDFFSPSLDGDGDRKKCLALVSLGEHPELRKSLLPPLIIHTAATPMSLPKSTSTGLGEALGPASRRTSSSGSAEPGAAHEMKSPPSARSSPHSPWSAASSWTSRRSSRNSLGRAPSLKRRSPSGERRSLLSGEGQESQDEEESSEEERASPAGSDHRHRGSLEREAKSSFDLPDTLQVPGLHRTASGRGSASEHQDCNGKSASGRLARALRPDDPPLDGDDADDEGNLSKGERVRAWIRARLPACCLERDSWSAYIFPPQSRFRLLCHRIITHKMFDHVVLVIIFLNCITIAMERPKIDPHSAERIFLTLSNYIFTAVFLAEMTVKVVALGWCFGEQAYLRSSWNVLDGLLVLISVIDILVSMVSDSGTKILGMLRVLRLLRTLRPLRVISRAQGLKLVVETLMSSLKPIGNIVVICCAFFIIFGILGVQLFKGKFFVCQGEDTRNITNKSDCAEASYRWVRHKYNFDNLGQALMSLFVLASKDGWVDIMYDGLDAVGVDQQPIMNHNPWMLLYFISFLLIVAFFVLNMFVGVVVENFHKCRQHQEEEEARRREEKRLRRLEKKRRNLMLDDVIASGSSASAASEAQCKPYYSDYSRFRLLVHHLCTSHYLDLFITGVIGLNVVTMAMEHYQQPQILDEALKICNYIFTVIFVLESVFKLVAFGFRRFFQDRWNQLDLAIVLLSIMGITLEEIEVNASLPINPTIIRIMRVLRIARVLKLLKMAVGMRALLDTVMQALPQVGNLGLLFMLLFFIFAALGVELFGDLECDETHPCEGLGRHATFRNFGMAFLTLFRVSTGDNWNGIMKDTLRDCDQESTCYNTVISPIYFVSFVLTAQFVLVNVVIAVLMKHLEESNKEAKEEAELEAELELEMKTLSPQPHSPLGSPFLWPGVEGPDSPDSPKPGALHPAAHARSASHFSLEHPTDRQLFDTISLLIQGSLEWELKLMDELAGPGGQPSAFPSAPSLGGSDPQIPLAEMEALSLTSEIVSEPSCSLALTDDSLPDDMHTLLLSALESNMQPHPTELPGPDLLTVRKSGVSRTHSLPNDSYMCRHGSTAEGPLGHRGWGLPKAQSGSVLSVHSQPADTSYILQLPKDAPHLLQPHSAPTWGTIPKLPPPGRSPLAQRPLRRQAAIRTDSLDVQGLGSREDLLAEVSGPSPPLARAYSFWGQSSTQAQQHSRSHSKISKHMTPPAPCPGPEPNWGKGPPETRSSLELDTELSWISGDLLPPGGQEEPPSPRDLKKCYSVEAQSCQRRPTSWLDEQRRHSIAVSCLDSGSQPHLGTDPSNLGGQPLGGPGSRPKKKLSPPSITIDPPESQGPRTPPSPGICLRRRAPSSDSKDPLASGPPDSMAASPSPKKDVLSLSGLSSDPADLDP
T1 sequence (O95180 whole entry): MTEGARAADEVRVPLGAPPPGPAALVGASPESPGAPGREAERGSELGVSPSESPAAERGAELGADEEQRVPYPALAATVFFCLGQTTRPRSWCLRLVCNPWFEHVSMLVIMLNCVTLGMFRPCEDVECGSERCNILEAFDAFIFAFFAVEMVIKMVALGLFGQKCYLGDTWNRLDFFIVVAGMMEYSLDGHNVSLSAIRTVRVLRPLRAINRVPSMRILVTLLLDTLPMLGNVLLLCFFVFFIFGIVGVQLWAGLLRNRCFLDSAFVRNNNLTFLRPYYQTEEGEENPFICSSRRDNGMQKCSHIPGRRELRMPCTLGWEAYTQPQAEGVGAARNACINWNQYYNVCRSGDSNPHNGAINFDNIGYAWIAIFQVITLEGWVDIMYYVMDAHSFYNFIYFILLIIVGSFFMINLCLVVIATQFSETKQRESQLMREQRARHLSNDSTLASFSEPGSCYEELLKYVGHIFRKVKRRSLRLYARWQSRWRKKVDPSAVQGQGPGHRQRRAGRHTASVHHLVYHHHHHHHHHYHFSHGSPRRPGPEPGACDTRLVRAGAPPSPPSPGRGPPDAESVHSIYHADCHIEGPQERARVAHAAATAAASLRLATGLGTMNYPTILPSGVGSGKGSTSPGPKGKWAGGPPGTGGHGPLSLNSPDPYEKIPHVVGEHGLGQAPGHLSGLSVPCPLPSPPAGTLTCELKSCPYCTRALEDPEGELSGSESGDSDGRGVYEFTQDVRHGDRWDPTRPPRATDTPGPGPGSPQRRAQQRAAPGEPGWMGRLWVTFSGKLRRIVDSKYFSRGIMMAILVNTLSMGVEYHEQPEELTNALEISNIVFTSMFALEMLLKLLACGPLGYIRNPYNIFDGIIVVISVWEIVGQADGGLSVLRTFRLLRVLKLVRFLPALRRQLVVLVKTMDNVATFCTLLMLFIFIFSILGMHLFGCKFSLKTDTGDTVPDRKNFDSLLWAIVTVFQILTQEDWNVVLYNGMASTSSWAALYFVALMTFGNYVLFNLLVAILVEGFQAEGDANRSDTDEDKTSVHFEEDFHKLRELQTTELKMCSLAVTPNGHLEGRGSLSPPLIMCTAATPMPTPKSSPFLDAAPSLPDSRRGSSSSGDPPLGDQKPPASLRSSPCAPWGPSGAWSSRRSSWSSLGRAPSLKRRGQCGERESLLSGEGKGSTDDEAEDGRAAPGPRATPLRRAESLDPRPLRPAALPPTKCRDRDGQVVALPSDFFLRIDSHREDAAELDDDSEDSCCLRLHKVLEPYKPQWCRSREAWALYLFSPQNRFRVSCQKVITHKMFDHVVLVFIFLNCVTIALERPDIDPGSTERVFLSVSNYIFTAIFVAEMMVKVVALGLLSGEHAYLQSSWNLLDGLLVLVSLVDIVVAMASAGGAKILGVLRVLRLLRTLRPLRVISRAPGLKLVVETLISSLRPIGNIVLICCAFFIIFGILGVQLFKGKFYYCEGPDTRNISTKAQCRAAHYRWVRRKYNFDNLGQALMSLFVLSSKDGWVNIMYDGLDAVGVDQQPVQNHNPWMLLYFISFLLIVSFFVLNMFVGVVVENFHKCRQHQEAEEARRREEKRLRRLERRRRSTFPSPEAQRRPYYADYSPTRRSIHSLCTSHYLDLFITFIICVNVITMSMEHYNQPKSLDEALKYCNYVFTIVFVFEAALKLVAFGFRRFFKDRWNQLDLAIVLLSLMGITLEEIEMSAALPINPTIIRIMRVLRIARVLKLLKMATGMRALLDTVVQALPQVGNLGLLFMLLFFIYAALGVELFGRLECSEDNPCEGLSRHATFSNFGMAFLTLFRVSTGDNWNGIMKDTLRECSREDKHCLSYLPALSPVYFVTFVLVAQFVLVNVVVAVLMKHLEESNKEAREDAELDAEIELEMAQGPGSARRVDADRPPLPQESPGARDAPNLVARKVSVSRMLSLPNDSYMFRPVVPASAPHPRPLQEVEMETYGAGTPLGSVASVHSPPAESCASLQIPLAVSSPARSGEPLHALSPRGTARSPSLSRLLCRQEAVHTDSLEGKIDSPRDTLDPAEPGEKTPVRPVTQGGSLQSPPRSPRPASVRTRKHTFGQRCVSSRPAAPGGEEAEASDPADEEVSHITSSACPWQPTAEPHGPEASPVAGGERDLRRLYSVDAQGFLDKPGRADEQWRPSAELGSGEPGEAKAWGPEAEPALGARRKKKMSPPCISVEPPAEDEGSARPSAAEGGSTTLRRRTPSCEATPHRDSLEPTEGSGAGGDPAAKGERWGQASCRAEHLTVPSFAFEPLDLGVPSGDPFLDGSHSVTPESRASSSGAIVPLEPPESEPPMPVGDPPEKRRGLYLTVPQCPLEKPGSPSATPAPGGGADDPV

As to `CCCCCn1cc(C(=O)N2CCN(C(=O)OC(C)(C)C)CC2)c2ccccc21` [SB2193], the IC50 in experiment [1] was 5.9 µM; in experiment [3] it was 0.75 µM; in experiment [4] (whole-cell patch clamp, n = 7–8, read-out: Cav3.1 pIC50 (converted)), 3.55 µM. Also, in experiment [2], the “inhibition of T-type channels” value is listed as “strongly inhibit”. Further, the “potency in patch clamp less than that determined by the FLIPR assay” value in experiment [4] (Cav3.1, patch clamp vs FLIPR) is “approximately 4 fold”.
